8 molecules from ChEMBL document CHEMBL1201862, “PubChem BioAssay data set” (2004) can be followed below.

For assay [1], the target named is T1, Estrogen receptor beta (Homo sapiens, UniProt Q92731). The assay is described as follows: ERβ–SRC-3 coactivator interaction inhibitors, confirmation, orthogonal assay, biochemical, ELISA, streptavidin-HRP readout (AID 1060).
The target of assay [2] is T2, Carboxy-terminal domain RNA polymerase II polypeptide A small phosphatase 1 (Homo sapiens, UniProt Q9GZU7).
T2 sequence (Q9GZU7 whole entry): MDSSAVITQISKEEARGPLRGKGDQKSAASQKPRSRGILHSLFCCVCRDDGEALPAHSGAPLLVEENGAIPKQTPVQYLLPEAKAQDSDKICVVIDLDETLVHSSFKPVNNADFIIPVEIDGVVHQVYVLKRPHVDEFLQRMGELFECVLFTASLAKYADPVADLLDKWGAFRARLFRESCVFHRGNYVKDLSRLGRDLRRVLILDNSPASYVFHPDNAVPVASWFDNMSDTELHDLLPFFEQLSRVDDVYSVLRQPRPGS
The assay is described as follows: inhibitors of CTDSP1, concentration-response testing, biochemical assay, absorbance-based, actives from ultra-high-throughput screening (AID 540297). It is filed as functional.

Assay [3] addresses T1, Estrogen receptor beta.
In a further assay the target is T3, Estrogen receptor (Homo sapiens, UniProt P03372).
T3 sequence (P03372 whole entry): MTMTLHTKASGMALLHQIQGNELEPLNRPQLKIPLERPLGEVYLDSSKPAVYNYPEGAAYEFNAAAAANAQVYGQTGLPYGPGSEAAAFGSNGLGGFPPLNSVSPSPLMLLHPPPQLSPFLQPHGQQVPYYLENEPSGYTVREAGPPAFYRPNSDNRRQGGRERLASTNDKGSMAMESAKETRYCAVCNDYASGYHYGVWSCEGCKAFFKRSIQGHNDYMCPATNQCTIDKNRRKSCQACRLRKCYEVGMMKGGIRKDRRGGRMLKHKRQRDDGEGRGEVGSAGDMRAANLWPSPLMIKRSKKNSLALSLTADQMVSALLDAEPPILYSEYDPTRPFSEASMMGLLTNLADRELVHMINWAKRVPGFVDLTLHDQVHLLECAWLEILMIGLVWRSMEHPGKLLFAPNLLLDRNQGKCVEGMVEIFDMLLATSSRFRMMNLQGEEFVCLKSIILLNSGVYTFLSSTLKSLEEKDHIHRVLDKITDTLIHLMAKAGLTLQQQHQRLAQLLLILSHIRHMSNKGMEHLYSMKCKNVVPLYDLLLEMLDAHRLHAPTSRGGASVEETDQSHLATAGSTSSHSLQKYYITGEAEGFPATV

Another assay deals with T4, Caspase-6 (Homo sapiens, UniProt P55212).
T4 sequence (P55212 whole entry): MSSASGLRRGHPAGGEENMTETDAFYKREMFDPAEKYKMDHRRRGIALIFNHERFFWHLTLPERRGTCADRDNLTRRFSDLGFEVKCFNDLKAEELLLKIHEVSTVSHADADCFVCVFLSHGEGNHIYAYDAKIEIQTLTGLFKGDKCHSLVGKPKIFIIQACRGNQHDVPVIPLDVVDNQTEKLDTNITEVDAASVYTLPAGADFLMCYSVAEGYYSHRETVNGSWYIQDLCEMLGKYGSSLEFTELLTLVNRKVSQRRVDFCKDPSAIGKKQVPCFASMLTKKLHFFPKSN
The assay is described as follows: human caspase-6 inhibitors, dose response, biochemical, VEID-R110 fluorescence, cherry-pick (AID 720632).

Assay [4] can be described thus: inhibitors of intracellular T. cruzi replication, confirmation, NIH3T3 host cells, beta-gal luminescence (AID 2044).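 Further: intracellular parasites grown in NIH/3T3 mouse fibroblasts as host cells; luminescent beta-galactosidase reporter signal from transgenic T. cruzi replicating inside host cells; inhibitors lower the luminescence signal.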 It is filed as functional, cell-based.
A short description of assay [5]: cytotoxicity toward DRD oncogenic fibroblasts, dose response, cell-based, non-viral oncogenic, luminescence (AID 1934). To be noted: Homo sapiens. It is filed as functional.
In assay [6] the test system is BJ. Nature of the assay: cells. It is filed as functional, cell-based. The note with it: Homo sapiens.
Assay [7] concerns the target FAD-linked sulfhydryl oxidase ALR (Homo sapiens, UniProt P55789). Nature of the assay: inhibitors of human ALR sulfhydryl oxidase, dose response, biochemical, H2O2 detection, luminescence, cherry-pick (AID 493248).
Assay [8] is described as follows: NIH-3T3 fibroblast cytotoxicity, dose response, cytotoxicity control, cell-based, fluorescence, Alamar Blue, secondary assay (AID 2327).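 Further: NIH-3T3 mouse fibroblasts cultured with fluconazole at 8 µg/mL.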 It is filed as functional. (In general: The colour change of resazurin is a common sign of viable cells or microbes.)
Assay [9] has as its system BJ. Nature of the assay: cytotoxicity toward BJ-TERT-LT-ST fibroblasts, dose response, cell-based, RAS-independent, luminescence (AID 1935).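 Further: BJ fibroblasts immortalized with TERT plus LT and ST oncogenes.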 To be noted: Homo sapiens. It is filed as functional.
A short description of assay [10]: cytotoxicity toward NIH3T3 fibroblasts, dose response, counter-screen, cell-based, ATP luminescence, mouse fibroblasts (AID 2010).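 Further: cells exposed to compound for about 90 hours before reading.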 It is filed as functional. A general note: The purpose of a counterscreen is to sort out artefacts and off-target activity.
Assay [11] has as its system BJ. The assay is described as follows: cytotoxicity toward BJ-TERT fibroblasts, dose response, cell-based, RAS-independent, luminescence (AID 1933). It is filed as functional. To be noted: Homo sapiens.
A short description of assay [12]: C. albicans growth with fluconazole, confirmation, fluorescence, retest (AID 2467). It is filed as functional, cell-based.
Assay [13] can be described thus: inhibitors of Vif binding to APOBEC3G peptide, primary screen, biochemical, TR-FRET, GST-Vif 1-94, biotin-A3G peptide, dose response retest (AID 1117319).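 Further: TR-FRET signal of purified GST-Vif binding a biotinylated A3G peptide; inhibitors lower the FRET signal by blocking Vif and A3G binding.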 It is filed as functional. A general note: TR-FRET usually uses a lanthanide donor and a delayed reading to cut background.

Activity calls are given as the source filed them.

T1 sequence (Q92731 whole entry, the tested form may be a part): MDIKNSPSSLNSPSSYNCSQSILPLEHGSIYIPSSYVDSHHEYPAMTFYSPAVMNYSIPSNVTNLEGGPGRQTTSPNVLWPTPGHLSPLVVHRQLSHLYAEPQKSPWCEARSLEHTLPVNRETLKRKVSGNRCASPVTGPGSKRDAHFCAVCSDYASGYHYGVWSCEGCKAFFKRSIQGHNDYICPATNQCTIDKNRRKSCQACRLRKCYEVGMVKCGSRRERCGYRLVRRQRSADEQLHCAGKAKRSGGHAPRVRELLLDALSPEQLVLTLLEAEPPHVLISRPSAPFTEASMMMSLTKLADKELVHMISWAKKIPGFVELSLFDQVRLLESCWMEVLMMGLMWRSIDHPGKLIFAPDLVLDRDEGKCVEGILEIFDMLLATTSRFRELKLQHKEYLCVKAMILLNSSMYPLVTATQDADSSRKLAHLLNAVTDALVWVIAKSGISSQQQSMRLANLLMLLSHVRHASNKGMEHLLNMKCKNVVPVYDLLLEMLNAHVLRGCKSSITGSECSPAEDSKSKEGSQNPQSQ
Chain of FAD-linked sulfhydryl oxidase ALR (P55789 whole entry): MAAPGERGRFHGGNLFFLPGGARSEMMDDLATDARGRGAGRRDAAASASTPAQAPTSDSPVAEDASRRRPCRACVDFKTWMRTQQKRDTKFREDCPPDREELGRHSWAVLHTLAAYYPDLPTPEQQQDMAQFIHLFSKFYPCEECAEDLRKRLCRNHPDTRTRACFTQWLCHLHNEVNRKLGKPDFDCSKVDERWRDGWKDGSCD

As for `O=C(Cn1c(=O)n(Cc2ccco2)c(=O)c2c3c(sc21)CCCCC3)Nc1ccccc1`, the half-inhibitory concentration (IC50) at Estrogen receptor beta [1] was 24.9 µM (not active); in [2], 4.93 µM (active); on Estrogen receptor beta [3], 6.57 µM (active); on Estrogen receptor, 7.24 µM (active).

`O=C(Nc1cccnc1Cl)c1ccc(=O)oc1`: on Caspase-6, the AC50 is 22 µM (active). In assay [2], the IC50 was 17.8 µM (active).

As to `Cc1csc2ncc(C(=O)N3c4ccccc4CC3C)c(=O)n12` (stereo not drawn), the IC50 at Estrogen receptor beta [3] is recorded as > 50 µM (not active).

Consider `CCN(CC)c1ccc(/C=C/c2cccc[n+]2C)c(OC)c1`, for which the EC50 is < 100 nM (active) in [4]; 15.2 µM (active) in assay [5]; 17.9 µM (active) in the assay on BJ [6]; > 150 µM (inactive) in [8]; 13.7 µM (inconclusive) in the assay on BJ [9]; 23 nM (active) in the assay “cells”. Further, the EC50 is > 60 µM (not active) in [10], 7.77 µM (active) in the assay on BJ [11] and 340 nM (active) in [12]. Further, in assay [7], the half-maximal activity concentration (AC50) was 452 nM (active).

Turning to `Cn1cnnc1SCC(=O)Nc1ncc([N+](=O)[O-])s1`, the AC50 at Caspase-6 was 3.04 µM (active).

`CCc1cccc(NC(=O)CN(C)S(=O)(=O)c2cccc3nsnc23)c1`: the IC50 in assay [13] is > 100 µM (active).

Consider `CCOc1ccc(C2c3c(oc4ccccc4c3=O)C(=O)N2CCCN2CCOCC2)cc1` (stereo not drawn), for which, in assay [13], the IC50 was > 100 µM (active).

Take `O=C(C1=C[C@H](C2CCCCC2)C[C@H](OCCCCO)O1)N1CCN(Cc2ccc3c(c2)OCO3)CC1`: the EC50 in assay [4] was < 100 nM (active); in the assay “cells” it was 58 nM (active); in assay [10], > 60 µM (not active).

As a reminder, the IC50 is the point on the concentration scale where inhibition reaches its midpoint. As usually defined, the AC50 is the concentration giving half of the maximal activity seen. Usually EC50 stands for the concentration needed to bring the measured effect to its halfway point.
